Assay results reported in US20230123334A1, “AMINO LIPID COMPOUND, PREPARATION METHOD THEREFOR, AND APPLICATION THEREOF” (SHENZHEN SHENXIN BIOTECHNOLOGY CO., LTD., priority 2020, published 2023).

Test system: HEK293 cells
Assay: Preliminary screening as mRNA vectors, EGFP mRNA transfection of HEK293 cells
Type: cell-based
Details: EGFP mRNA 50 ng per well, 96-well plates; percentage of GFP fluorescent cells relative to total number of cells (Hoechst)
Summary of the method: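 HEK293 cells in DMEM plus 10% FBS transfected in 96-well format with 50 ng EGFP mRNA per well; Lipofectamine2000 served as positive control. Read-out is the percentage of GFP-fluorescent cells among total cells, counted by Hoechst nuclear stain.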

Row | Structure (SMILES) | Absolute mRNA transfection efficiency in HEK293 cells [%]
1 | CCCCCCCCCCCCCCCCSc1nc(NCCCCCCCCC)nc(NCCCN(C)C)n1 [Compound D6S16N9] | 76.1
2 | CCCCCCCCCCCCCCCCSc1nc(NCCCCCCCCCCC)nc(NCCCN(C)C)n1 [Compound D6S16N11] | 63.0
3 | CCCCCCCCCCCCCCCCSc1nc(NCCCCCCCCCCCC)nc(NCCCN(C)C)n1 [Compound D6S16N12] | 2.0
4 | CCCCCCCCCCCCCCCCSc1nc(NCCCCCCCCCCCCC)nc(NCCCN(C)C)n1 [Compound D6S16N13] | 0.5
5 | CCCCCCCCCCCCCCCCSc1nc(NCCCCCCCCCCCCCCC)nc(NCCCN(C)C)n1 [Compound D6S16N15] | 0.1
6 | CCCCCCCCCCCCCCCCNc1nc(NCCCN(C)C)nc(SCCCCCCCCCCCCCCCC)n1 [Compound D6S16N16] | 0.1
7 | CCCCCCCCCCCCCCCCCCNc1nc(NCCCN(C)C)nc(SCCCCCCCCCCCCCCCC)n1 [Compound D6S16N18] | 0.0
8 | CCCCCCCCCCCCCCCCCCSc1nc(NCCCCCC)nc(NCCCN(C)C)n1 [Compound D6S18N6] | 74.8
9 | CCCCCCCCCCCCCCCCCCSc1nc(NCCCCCCC)nc(NCCCN(C)C)n1 [Compound D6S18N7] | 87.5
10 | CCCCCCCCCCCCCCCCCCSc1nc(NCCCCCCCC)nc(NCCCN(C)C)n1 [Compound D6S18N8] | 74.5
11 | CCCCCCCCCCCCCCCCCCSc1nc(NCCCCCCCCC)nc(NCCCN(C)C)n1 [Compound D6S18N9] | 40.1
12 | CCCCCCCCCCCCCCCCCCSc1nc(NCCCCCCCCCCC)nc(NCCCN(C)C)n1 [Compound D6S18N11] | 5.7
13 | CCCCCCCCCCCCCCCCCCSc1nc(NCCCCCCCCCCCC)nc(NCCCN(C)C)n1 [Compound D6S18N12] | 2.6
14 | CCCCCCCCCCCCCCCCCCSc1nc(NCCCCCCCCCCCCC)nc(NCCCN(C)C)n1 [Compound D6S18N13] | 1.0
15 | CCCCCCCCCCCCCCCCCCSc1nc(NCCCCCCCCCCCCCCC)nc(NCCCN(C)C)n1 [Compound D6S18N15] | 0.0
16 | CCCCCCCCCCCCCCCCCCSc1nc(NCCCCCCCCCCCCCCCC)nc(NCCCN(C)C)n1 [Compound D6S18N16] | 0.0
17 | CCCCCCCCCCCCCCCCCCNc1nc(NCCCN(C)C)nc(SCCCCCCCCCCCCCCCCCC)n1 [Compound D6S18N18] | 0.0
18 | CCCCCCNc1nc(NCCN(CC)CC)nc(SCCCCCC)n1 [Compound D7S6N6] | 1.2
19 | CCCCCCCNc1nc(NCCN(CC)CC)nc(SCCCCCC)n1 [Compound D7S6N7] | 0.0
20 | CCCCCCCCNc1nc(NCCN(CC)CC)nc(SCCCCCC)n1 [Compound D7S6N8] | 3.5
21 | CCCCCCCCCNc1nc(NCCN(CC)CC)nc(SCCCCCC)n1 [Compound D7S6N9] | 2.4
22 | CCCCCCCCCCCNc1nc(NCCN(CC)CC)nc(SCCCCCC)n1 [Compound D7S6N11] | 3.8
23 | CCCCCCCCCCCCNc1nc(NCCN(CC)CC)nc(SCCCCCC)n1 [Compound D7S6N12] | 1.4

Row | Structure (SMILES) | Absolute mRNA transfection efficiency in HEK293 cells [%]
24 | CCCCCCCCCCCCCNc1nc(NCCN(CC)CC)nc(SCCCCCC)n1 [Compound D7S6N13] | 2.6
25 | CCCCCCCCCCCCCCCNc1nc(NCCN(CC)CC)nc(SCCCCCC)n1 [Compound D7S6N15] | 2.2
26 | CCCCCCCCCCCCCCCCNc1nc(NCCN(CC)CC)nc(SCCCCCC)n1 [Compound D7S6N16] | 3.0
27 | CCCCCCCCCCCCCCCCCCNc1nc(NCCN(CC)CC)nc(SCCCCCC)n1 [Compound D7S6N18] | 4.6
28 | CCCCCCSc1nc(NCCN(CC)CC)nc(SCCCCCC)n1 [Compound D7S6S6] | 19.5
29 | CCCCCCCSc1nc(NCCN(CC)CC)nc(SCCCCCC)n1 [Compound D7S6S7] | 22.9
30 | CCCCCCCCSc1nc(NCCN(CC)CC)nc(SCCCCCC)n1 [Compound D7S6S8] | 18.9
31 | CCCCCCCCCSc1nc(NCCN(CC)CC)nc(SCCCCCC)n1 [Compound D7S6S9] | 4.2
32 | CCCCCCCCCCSc1nc(NCCN(CC)CC)nc(SCCCCCC)n1 [Compound D7S6S10] | 2.7
33 | CCCCCCCCCCCSc1nc(NCCN(CC)CC)nc(SCCCCCC)n1 [Compound D7S6S11] | 0.5
34 | CCCCCCCCCCCCSc1nc(NCCN(CC)CC)nc(SCCCCCC)n1 [Compound D7S6S12] | 8.1
35 | CCCCCCCCCCCCCCSc1nc(NCCN(CC)CC)nc(SCCCCCC)n1 [Compound D7S6S14] | 3.8
36 | CCCCCCCCCCCCCCCSc1nc(NCCN(CC)CC)nc(SCCCCCC)n1 [Compound D7S6S15] | 1.3
37 | CCCCCCCCCCCCCCCCSc1nc(NCCN(CC)CC)nc(SCCCCCC)n1 [Compound D7S6S16] | 2.3
38 | CCCCCCCCCCCCCCCCCCSc1nc(NCCN(CC)CC)nc(SCCCCCC)n1 [Compound D7S6S18] | 9.5
39 | CCCCCCCSc1nc(NCCCCCC)nc(NCCN(CC)CC)n1 [Compound D7S7N6] | 2.3
40 | CCCCCCCNc1nc(NCCN(CC)CC)nc(SCCCCCCC)n1 [Compound D7S7N7] | 3.9
41 | CCCCCCCCNc1nc(NCCN(CC)CC)nc(SCCCCCCC)n1 [Compound D7S7N8] | 3.5
42 | CCCCCCCCCNc1nc(NCCN(CC)CC)nc(SCCCCCCC)n1 [Compound D7S7N9] | 10.5
43 | CCCCCCCCCCCNc1nc(NCCN(CC)CC)nc(SCCCCCCC)n1 [Compound D7S7N11] | 11.1
44 | CCCCCCCCCCCCNc1nc(NCCN(CC)CC)nc(SCCCCCCC)n1 [Compound D7S7N12] | 3.6
45 | CCCCCCCCCCCCCNc1nc(NCCN(CC)CC)nc(SCCCCCCC)n1 [Compound D7S7N13] | 1.2
46 | CCCCCCCCCCCCCCCNc1nc(NCCN(CC)CC)nc(SCCCCCCC)n1 [Compound D7S7N15] | 18.5
